How the values were obtained:
[1] = test system: NCI-H226 cells; test: Proliferation and cell viability assay, CellTiter-Glo 2.0 (CTG); assay type: cell-based, human; conditions: Homo sapiens, NCI-H226, responder cell line, 144 hrs
Experimental: (§1) Cell proliferation of a TEAD dependent NF2-null mesothelioma cell line, NCI-H226 was assayed using two different protocols. Results were confirmed in two different TEAD-non-dependent lung cancer cell lines, H23 and H28, were used as non-responsive controls, as indicated:
a) CellTiter-Glo® 2.0 (Promega #G9243). The effect of the TEAD inhibitors disclosed herein on cell proliferation was determined in TEAD1-genetically dependent cell line NCI-H226 (responder cell line) and TEAD-independent cell lines (NCI-H23, HEK293T), as non-responder, negative control. Cells were seeded in 96-well plates (Thermo Scientific #167008) in growth media (RPMI-1640, Gibco #61870-010) for NCI-H226 and NCI-H23 or DMEM (Gibco #31966-021, HEK293T) with […] Heat Inactivated Fetal Bovine Serum (Gibco 10500-064) at 800 (NCI-H226 and HEK-293T) or 2000 (NCI-H23) cells per well at 37° C., […], humidified incubator; 24 hours later, fresh growth media containing test compound or DMSO vehicle was added and incubated with the cells for 144 hrs. TEAD inhibitor stocks were made at a 1000× fold excess in DMSO, and a dose response test compound dose range of 10,000 to 0.1 nM was used. Each treatment was carried out in triplicate. After 144 hrs of treatment, relative cell viability numbers were determined using the CellTiter-Glo 2.0 assay following the manufacturer's instructions. Test plates and CellTiter-Glo 2.0 reagent were allowed to equilibrate to room temperature. CellTiter-Glo 2.0 reagent was added at 1:1 reagent to media ratio to the 96-well cell plates, plates were placed on a plate shaker for 2 minutes and then incubated at room temperature for a further 10 minutes to allow complete cell lysis to occur. The mix was then transferred to white, 96-well luminometer assay plates (Greiner Bio One #655075). Luminescence was quantified using a CLARIOStar Plus multi-mode plate reader (BMG Labtech) in luminescence detection mode with the recommended settings (ultra-Glo pre-set: emission 545-50 nm with autofocus and enhanced dynamic range on). Relative cell density was expressed as a function of inhibitor concentration, with respect to DMSO-only control wells. Data where plotted using GraphPad Prism and IC50 values for the biological effect were calculated using the EC50 non-linear fit function using a sigmoidal, 4-parameter logistic, least squares fit with no constraints.
(§2) For IC50 and EC50 data “A” indicates a value of less than 0.2 μM; the symbol “B” indicates a value in the range of from 0.2 μM up to 1 μM; and the symbol “C” indicates a value of greater than 1 μM. ND: no data.

[2] = test system: NCI-H226 cells; test: Proliferation and cell viability assay, Cell Titer One; assay type: cell-based, human; conditions: Homo sapiens, NCI-H226, 144 h, Cell Titer One assay, 6 days
Experimental: as §1
b) Cell Titer One (Promega, #G3582). The effect of the TEAD inhibitors disclosed herein on cell proliferation was also determined using the Promega Substrate Cell Titer Aqueous One Solution Reagent. The TEAD inhibitors were evaluated for the effects on cell proliferation responder (H226) and non-responder negative control cancer cell lines (CAMA1, H28), as well as non-transformed normal human cells (HUVEC, NHDF). Dissociated cells were resuspend in media (depending on cell line, either in DMEM, RPMI, or EMEM all with 10% FBS, with gentamicin as an antibiotic). Cells were seeded at 100 μL/well at 750 cells per well in 96-well plates and allowed to settle and attach. After an incubation of 24 hrs (37° C., 5% CO2, humidified incubator), 100 μL of test compound-containing media was added. A dilution series of 2000× concentrated stock of test compounds was prepared in DMSO, for final concentrations from 0.1 to 10,000 nM. After addition of test compound-containing media, cells were incubated for 6 days at 37° C., 5% CO2, humidified incubators). To measure cell density, 20 μL of Promega Substrate Cell Titer 96 Aqueous One Solution Reagent (Promega, #G3582) to each well was added according to the manufacturer's instructions. Plates were incubated at 37° C. for usually 3-8 hrs, to reach in the control cells (without compound) an OD of 1.5 at 490 nm. The OD was measured using Vmax [Molecular Devices] spectrophotometer plate reader. Media only-wells were used as background controls and cell densities normalized to DMSO vehicle control. EC50 were taken as the concentration achieving 50% of maximal growth inhibition.
as §2

[3] = test system: NCI-H23 cells; test: Proliferation and cell viability assay, CellTiter-Glo 2.0 (CTG); assay type: cell-based; conditions: Homo sapiens, non-responder cell line, 144 hrs
Experimental: as §1
a) CellTiter-Glo® 2.0 (Promega #G9243). The effect of the TEAD inhibitors disclosed herein on cell proliferation was determined in TEAD1-genetically dependent cell line NCI-H226 (responder cell line) and TEAD-independent cell lines (NCI-H23, HEK293T), as non-responder, negative control. […] After 144 hrs of treatment, relative cell viability numbers were determined using the CellTiter-Glo 2.0 assay following the manufacturer's instructions. […] Luminescence was quantified using a CLARIOStar Plus multi-mode plate reader (BMG Labtech) in luminescence detection mode with the recommended settings (ultra-Glo pre-set: emission 545-50 nm with autofocus and enhanced dynamic range on). Relative cell density was expressed as a function of inhibitor concentration, with respect to DMSO-only control wells. Data where plotted using GraphPad Prism and IC50 values for the biological effect were calculated using the EC50 non-linear fit function using a sigmoidal, 4-parameter logistic, least squares fit with no constraints. […]

[4] = test system: TEAD isoforms 1-4; test: TEAD thermal shift assay (TSA), outcome in words; assay type: binding, human
Description: (§3) Thermal shift assay (TSA) is a biophysical method to evaluate stability of proteins with change in temperature. The assay measures thermal denaturation temperature in varying conditions such as different drug concentration. For this example, fluorogenic dye was used that bind to unfolded proteins. SYPRO Orange binds non-specifically to hydrophobic surfaces, and water strongly quenches its fluorescence. When the protein unfolds, the exposed hydrophobic surfaces bind the dye, resulting in an increase in fluorescence by excluding water. Detergent micelles also bind the dye and increase background noise dramatically. Binding of small molecules to proteins leads to a stabilization against to thermal denaturation with the degree of thermal stabilization proportional to the strength of binding.
(§4) The study described in this example investigated the change in melting temperature (ΔTm) of TEAD isoforms 1-4 when treated with TEAD inhibitors.
(§5) Tris-HCL was dissolved in 5 mL of Cell culture grade water and allowed to dissolve completely. The pH was adjusted to 8 using NaOH. Additional assay buffer components were added in the order listed above. The buffer was mixed slowly.
(§6) Assay buffer was prepared according to the procedures outlined above and dispensed into test wells. Spyro orange was added to a concentration of 5× in the assay buffer, followed by test compound stock solution which was added to a concentration of 10 μM or 30 μM in the assay buffer.
(§7) The melt cycle was performed in Bio-RAD PCR instrument from 20-95° C. with ramp rate of 1° C./min.

[5] = biological target: TEAD2 (Homo sapiens, UniProt Q15562); test: TEAD thermal shift assay (TSA); assay type: binding
Description: as §3, §4, §5, §6, §7

[6] = biological target: TEAD1 (Homo sapiens, UniProt P28347); test: TEAD thermal shift assay (TSA); assay type: binding
Description: as §3, §4, §5, §6, §7

[7] = biological target: TEAD3 (Homo sapiens, UniProt Q99594); test: TEAD thermal shift assay (TSA); assay type: binding; conditions: Ratio of Protein to Compound 1:1
Description: as §3, §4, §5, §6, §7

[8] = biological target: TEAD4 (Homo sapiens, UniProt Q15561); test: TEAD thermal shift assay (TSA); assay type: binding
Description: as §3, §4, §5, §6, §7

[9] = test system: TEAD; conditions: control compounds; cited from earlier work
[10] = Ratio of Protein to Compound 1:1
[11] = Ratio of Protein to Compound 1:3

Chain of TEAD2 (Q15562 whole entry): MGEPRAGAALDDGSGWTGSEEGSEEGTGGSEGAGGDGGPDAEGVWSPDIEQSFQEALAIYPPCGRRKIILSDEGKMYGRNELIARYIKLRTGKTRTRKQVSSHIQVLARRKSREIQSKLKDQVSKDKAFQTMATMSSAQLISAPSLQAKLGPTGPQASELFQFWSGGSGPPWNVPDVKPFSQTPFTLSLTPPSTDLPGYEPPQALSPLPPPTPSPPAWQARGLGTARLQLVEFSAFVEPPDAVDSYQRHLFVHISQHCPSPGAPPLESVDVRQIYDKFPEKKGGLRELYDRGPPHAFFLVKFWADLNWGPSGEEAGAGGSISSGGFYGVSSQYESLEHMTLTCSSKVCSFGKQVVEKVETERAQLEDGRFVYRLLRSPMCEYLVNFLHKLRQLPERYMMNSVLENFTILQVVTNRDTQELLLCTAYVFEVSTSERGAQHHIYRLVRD
Chain of TEAD4 (Q15561 whole entry): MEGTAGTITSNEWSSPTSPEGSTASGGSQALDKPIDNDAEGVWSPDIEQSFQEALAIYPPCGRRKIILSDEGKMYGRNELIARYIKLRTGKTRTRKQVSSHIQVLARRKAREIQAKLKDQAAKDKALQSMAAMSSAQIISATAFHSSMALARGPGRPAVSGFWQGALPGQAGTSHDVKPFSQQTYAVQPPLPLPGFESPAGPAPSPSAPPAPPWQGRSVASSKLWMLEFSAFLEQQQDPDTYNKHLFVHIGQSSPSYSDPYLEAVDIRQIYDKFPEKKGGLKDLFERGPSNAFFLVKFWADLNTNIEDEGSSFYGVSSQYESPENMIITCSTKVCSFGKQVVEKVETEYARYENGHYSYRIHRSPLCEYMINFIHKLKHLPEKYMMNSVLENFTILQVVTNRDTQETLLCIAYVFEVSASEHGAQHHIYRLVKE
Chain of TEAD1 (P28347 whole entry): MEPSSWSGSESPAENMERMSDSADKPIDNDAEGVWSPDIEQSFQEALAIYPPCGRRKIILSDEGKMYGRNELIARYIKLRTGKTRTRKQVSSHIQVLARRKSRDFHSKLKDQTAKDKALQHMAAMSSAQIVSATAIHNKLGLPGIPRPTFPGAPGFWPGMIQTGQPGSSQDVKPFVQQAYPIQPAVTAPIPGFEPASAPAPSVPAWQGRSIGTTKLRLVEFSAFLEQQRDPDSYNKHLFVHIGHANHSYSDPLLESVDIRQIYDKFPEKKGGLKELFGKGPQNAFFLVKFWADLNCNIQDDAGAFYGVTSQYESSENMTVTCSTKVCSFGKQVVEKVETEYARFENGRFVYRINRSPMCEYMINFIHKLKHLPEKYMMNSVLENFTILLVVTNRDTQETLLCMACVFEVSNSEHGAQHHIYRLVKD
Chain of TEAD3 (Q99594 whole entry): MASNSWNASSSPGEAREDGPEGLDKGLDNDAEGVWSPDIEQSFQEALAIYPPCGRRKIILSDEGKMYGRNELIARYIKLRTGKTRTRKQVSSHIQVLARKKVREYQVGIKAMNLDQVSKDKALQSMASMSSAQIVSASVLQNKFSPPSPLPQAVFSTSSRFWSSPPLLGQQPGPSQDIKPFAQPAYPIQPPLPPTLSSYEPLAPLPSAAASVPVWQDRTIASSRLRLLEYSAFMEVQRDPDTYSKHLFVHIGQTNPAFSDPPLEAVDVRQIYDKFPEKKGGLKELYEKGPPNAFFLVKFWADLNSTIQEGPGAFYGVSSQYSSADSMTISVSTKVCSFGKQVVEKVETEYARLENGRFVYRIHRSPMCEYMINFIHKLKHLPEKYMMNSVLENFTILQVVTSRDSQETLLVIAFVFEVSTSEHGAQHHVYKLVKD

Row | SMILES | EC50 [1] [µM] | IC50 [2] [µM] | other results
1 | CC1(c2ccc(Nc3ccc(C(F)(F)F)cc3)c(-c3cnccn3)c2)CCNC1=O (stereo not shown) [Compound 13, 3-methyl-3-(3-(pyrazin-2-yl)-4-((4-(trifluoromethyl)phenyl)amino)phenyl) pyrrolidin-2-one] | < 0.2 | > 1 | –
2 | Cn1cnc(-c2cc(C3(C)CCNC3=O)ccc2Nc2ccc(C(F)(F)F)cc2)c1 (racemic) [Compound 2, 3-methyl-3-(3-(1-methyl-1H-imidazol-4-yl)-4-((4-(trifluoromethyl)phenyl)amino)phenyl) pyrrolidin-2-one] | < 0.2 | < 0.2 | IC50 [3]: > 1 µM
3 | C[C@H](NC(=O)c1ccc2c(-c3ccc(C(F)(F)F)cc3)cccc2c1)c1cccc(N)n1 [Compound 1-4] | – | – | thermal shift / TEAD binding (in words) [4]: thermal shifts for all four TEAD isoforms; TEAD2 ΔTm [5, 10]: 2.5 °C; TEAD2 ΔTm [5, 11]: 11 °C; TEAD1 ΔTm [6, 10]: 7.5 °C; TEAD1 ΔTm [6, 11]: 11 °C; TEAD3 ΔTm [7]: 3 °C; TEAD4 ΔTm [8, 10]: 1.5 °C; TEAD4 ΔTm [8, 11]: 11 °C; known TEAD inhibition (in words) [9]: pan-TEAD inhibitor
4 | Cn1cnc(-c2cc(CN3CC(=O)NC3=O)ccc2Nc2ccc(C(F)(F)F)cc2)c1 [Compound 4, 1-(3-(1-methyl-1H-imidazol-4-yl)-4-((4-(trifluoromethyl)phenyl)amino)benzyl) imidazolidine-2,4-dione] | < 0.2 | < 0.2 | –
5 | CC1(c2ccc(Nc3ccc(C(F)(F)F)cc3)c(-c3cccnn3)c2)CCNC1=O (stereo not shown) [Compound 12, 3-methyl-3-(3-(pyridazin-3-yl)-4-((4-(trifluoromethyl)phenyl)amino)phenyl) pyrrolidin-2-one] | < 0.2 | > 1 | –

Continued, in another order:

Row | EC50 [1] [µM] | IC50 [2] [µM] | SMILES | other results
6 | < 0.2 | < 0.2 | Cc1nnc(-c2cc(C3(C)CCNC3=O)ccc2Nc2ccc(C(F)(F)F)cc2)o1 (racemic) [Compound 1, 3-methyl-3-(3-(5-methyl-1,3,4-oxadiazol-2-yl)-4-((4-(trifluoromethyl)phenyl)amino)phenyl) pyrrolidin-2-one] | IC50 [3]: > 1 µM
7 | 0.2 to 1 | < 0.2 | Cc1nnc(-c2cc([C@@]3(C)CCNC3=O)ccc2Nc2ccc(C(F)(F)F)cc2)o1 (single isomer, unassigned) [Compound 7, 3-methyl-3-(3-(5-methyl-1,3,4-oxadiazol-2-yl)-4-((4-(trifluoromethyl)phenyl)amino)phenyl) pyrrolidin-2-one] | –
8 | < 0.2 | 0.2 to 1 | Cc1nnc(-c2cc(C3(C)CCNC3=O)ccc2Nc2ccc(C(F)(F)F)cc2)o1 (single isomer, unassigned) [Compound 8, 3-methyl-3-(3-(5-methyl-1,3,4-oxadiazol-2-yl)-4-((4-(trifluoromethyl)phenyl)amino)phenyl) pyrrolidin-2-one] | –

Reference: patent US20260317304A1, “TEAD INHIBITORS AND METHODS OF USE” (Sporos BioDiscovery, Inc., priority 2022, published 2026)
